From publication PMC8290497, “Taxifolin, an Inhibitor of Sortase A, Interferes With the Adhesion of Methicillin-Resistant Staphylococcal aureus” (Frontiers in Microbiology, 2021)

Tests used:
S. aureus SrtA = target: T1, S. aureus SrtA (Staphylococcus aureus, UniProt Q2FV99); assay: FRET assay of SrtA transpeptidation (cleavage of Abz-LPATG-Dap(Dnp)-NH2); assay type: biochemical
T1 construct: 6xHis; made in house; host or cells: E. coli BL21 (DE3), plasmid pET28a-SrtA
Protocol: Fluorescence resonant energy transfer (FRET) was used to determine the effect of Tax on SrtA, as described previously ([Kruger et al., 2002]). Briefly, 4 μM purified recombinant SrtA was combined with various concentrations of Tax then added to assay buffer consisting of 50 mM Tris-HCl, 5 mM CaCl2, 150 mM NaCl, at pH 7.5, to a final volume of 200 μL. Following incubation of the mixture at 37°C for 1 h, substrate peptide was added to a final concentration of 10 μM and incubated for an additional 30 min. Fluorescence intensity was measured at excitation and emission wavelengths of 309 and 420 nm, respectively.
To identify novel inhibitors of SrtA, an in-house library containing 420 natural compounds was screened, using a FRET assay. […] To further clarify the interacting way of SrtA and Tax, recombinant SrtA was reacted with Tax at a concentration of 10-fold IC50. A total of 85.80 ± 0.67% of SrtA activity was subsequently recovered, compared with the control group (DMSO) (Figure 1C).
FIGURE 1 Inhibition of SrtA transpeptidation. (A) Chemical structure of Tax. […] Each reaction condition was assayed in triplicate from which the IC50 was determined. (C) Recombinant SrtA was treated with 10 × IC50 of Tax and then diluted, after which transpeptidation activity was measured using a FRET assay. […]

[1] = test system: S. aureus biofilm formation; assay: Biofilm formation assay (crystal violet); assay type: cell-based, Staphylococcus aureus; details: coculture with 200 μM Tax, 24 h
Protocol: Bacterial cultures grown overnight were diluted 1:100 in BHI medium supplemented with 3% NaCl and 0.5% glucose. A 200 μL aliquot of each diluted culture was added to separate wells of a 96-well plate, to which different concentrations of Tax (25–200 μM) had been added, then incubated at 37°C for 24 h. Subsequently, the culture medium was replaced with crystal violet to stain the biofilm for 15 min. The wells were then washed thoroughly with sterile deionized PBS three times. The crystal violet stain in each well was decolorized with 200 μL absolute ethanol and then the OD595 value was recorded using a microplate reader.
(§1) FIGURE 3 Effect of SrtA inhibitor on virulence-related phenotypes in S. aureus Newman strain. (A) Impact of Tax on the ability of S. aureus to adhere to fibrinogen. (B) Biofilm formation of S. aureus in the presence of different concentrations of Tax. (C) Mature biofilms of S. aureus in the presence of different concentrations of Tax. The ΔsrtA group represented the positive control. (D) Tax affects internalization of S. aureus into A549 cells. […] The number of viable S. aureus in the cells was quantified by serial dilution on TSA agar plates. […] Error bars represent means ± SD of three replicates. *P < 0.05, **P < 0.01, ***P < 0.001 calculated with a two-tailed Student’s t-test.

[2] = test system: internalization of S. aureus into A549 cells; assay: Invasion assay of S. aureus into A549 cells; assay type: cell-based, Staphylococcus aureus; details: 200 μM Tax; P < 0.001
Protocol: A549 human lung carcinoma cells were seeded at a density of 2.5 × 10^5 per well in 24-well plates and placed in an incubator at 37°C in an atmosphere containing 5% CO2 for 20 h. Cultures of S. aureus were mixed with different concentrations of Tax then cultured at 37°C until an OD600 of 1.0 was achieved. The A549 cells were resuspended in medium and aliquots of bacterial suspension were added to each well to a total concentration of 2 × 10^7°CFU/mL. After incubation for 2 h, the invasion assay was terminated by incubation with 300 μg/mL gentamicin for 30 min. The cells were then lysed after washing and coated on a BHI agar plate. After incubation at 37°C for 12 h, the number of CFUs were counted manually.
as §1

[3] = test system: S. aureus USA300 pneumonia in C57BL/6J mice; assay: Murine model of MRSA-induced pneumonia; assay type: in vivo, mouse
Protocol: To investigate the therapeutic capability of Tax to treat acute pneumonia infection caused by S. aureus USA300, 6- to 8-week-old female C57BL/6J mice were infected intranasally with 2 × 10^8 CFU of S. aureus USA300, then held upright for 30 s to ensure each animal inhaled the bacteria into their lungs. Two h post-infection, the mice were subcutaneously injected with Tax (100 mg/kg). Similarly, mice were challenged with ΔsrtA and sterile PBS containing 0.5% DMSO (control group) as controls. To assess survival, the mice were checked every 12 h for 96 h, and the percentage that had survived was recorded.
For bacterial counts in lung tissue and histopathological examination, mice were infected intranasally with 30 μL (1 × 10^8 CFUs) of S. aureus USA300. Tax (100 mg/kg) was then injected subcutaneously every 12 h after inoculation. The bacterial load in the lungs was determined after the mice in each group were sacrificed 48 h post-infection. The left lung from each animal was removed aseptically and processed to count the bacterial CFUs. The right lung of each mouse was aseptically removed and analyzed by conventional hematoxylin and eosin (H&E) staining using an optical microscope. The ratio of wet to dry lung tissue weight (W/D ratio) was recorded in each case. Wet lung weight was measured 1 min after surface moisture had been removed. Dry lung weight was determined after dehydration at 80°C. The W/D ratio is used to reveal the degree of tissue edema ([Xia et al., 2016]).
FIGURE 6 Effect of treatment with Tax on S. aureus-induced pneumonia in mice. (A) Effect of Tax on the survival of mice (n = 10 per group) infected with a lethal dose of S. aureus. (B) Effect of Tax (100 mg/kg) on bacterial load in the lungs of mice (n = 6). (C) Gross pathological changes and histopathology of mouse lungs treated with Tax (100 mg/kg/d) or untreated. Scale bar: 50 μm. (D) Lung wet-to-dry weight ratio (W/D). Each value represents mean ± SD (n = 5 per group). **P < 0.01, ***P < 0.001; Mann-Whitney test, two-tailed. Horizontal bars represent mean values. Animal data were obtained from two separate experiments.

BALB/c mice = details: mouse, in vivo, ip, 200 mg/kg
Protocol: An injection of PBS represented the control group. Symptoms of poisoning or abnormal behavior were monitored, and survival of the mice in each group was recorded after 72 h.

T1 sequence (Q2FV99 whole entry): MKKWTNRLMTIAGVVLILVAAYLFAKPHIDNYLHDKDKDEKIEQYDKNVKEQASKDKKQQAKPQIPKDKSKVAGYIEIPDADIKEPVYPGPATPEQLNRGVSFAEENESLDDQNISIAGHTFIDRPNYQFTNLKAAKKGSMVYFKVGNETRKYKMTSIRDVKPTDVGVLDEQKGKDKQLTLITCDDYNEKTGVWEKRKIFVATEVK

## O=C1c2c(O)cc(O)cc2OC(c2ccc(O)c(O)c2)C1O (centres unmarked) [Tax, taxifolin]
S. aureus SrtA
  IC50: 24.5 ± 0.42 µM
[1]
  biofilm biomass, % of the mass of the untreated control: 29.91 ± 0.51%
[2]
  number of bacteria entering A549 cells: reduced significantly
[3]; Tax 100 mg/kg subcutaneous every 12 h, 48 h post-infection
  bacterial load in the lungs: 6.73 ± 0.69 lg CFU/g
[3]; Tax 100 mg/kg, infected mice, H&E staining
  lung histopathology: significantly reduced inflammation
[3]; Tax 100 mg/kg, infected mice, P < 0.001
  lung wet-to-dry weight ratio (W/D): 5.35 ± 0.34
[3]; lethal dose S. aureus USA300 intranasal, Tax 100 mg/kg subcutaneous, 96 h, p < 0.01
  survival rate of mice: 50%
BALB/c mice
  acute toxicity, signs observed: no signs of malaise, or tardy or inanimate behavior
